Laboratory results from article PMC11304383 (Molecular Pharmaceutics, 2024).
≈ marks a conversion by molar mass, not a printed value. Where two headings read alike, the source gives them in different places.

Experiments:
[1] = parameters: method as in doi:10.1007/s12247-019-09381-9; conditions: cited from earlier work
[2] = system: P-gp; parameters: method as in doi:10.1016/j.jddst.2022.103431; conditions: read-out: IC50 value of NRG for P-gp inhibition; cited from earlier work
[3] = system: A549 cells; assay: SRB (sulforhodamine B) cytotoxicity assay; format: cell-based; conditions: Homo sapiens, read-out: IC50 value
Protocol: A cell suspension was made based on cell count, and 5000 cells were seeded per well in a 96-well plate. […] The SRB assay was performed after a 48 h incubation […], and the absorbance at 540 nm was determined using a plate reader.[40]

[4] = system: CYP3A; parameters: method as in PMID 33394101; conditions: 33 adult NSCLC patients; cited from earlier work
[5] = system: A549 cells; assay: Cell cycle analysis by flow cytometry (propidium iodide); format: cell-based, human; conditions: individual IC50 concentrations, 48 h
Protocol: Exponentially growing cells were detached from T-25 cell culture flasks using trypsin and then transferred to sterile Petri plates. The cells were allowed to attach and grow for approximately 24 h. After the attachment period, different treatments were applied to the cells, and the plates were further incubated for 48 h. The media was removed after 48 h of incubation, and the plates were rinsed two times with phosphate buffer. After that, the cells were trypsinized and centrifuged at 4 °C. After centrifugation, the pellet was fixed in 70% ice-cold ethanol for 30 min at 4 °C. The resulting pellet was resuspended in Dulbecco’s phosphate-buffered saline (PBS) to wash the cells. After another round of centrifugation, the supernatant was removed and the pellet was redispersed in a staining solution consisting RNase, propidium iodide, and NP-40. For 20 min, the cell suspension was incubated in the dark at room temperature. The cells were then analyzed with a BD Accuri C6 flow cytometer (BD Biosciences, San Jose, CA, USA).[42]

[6] = system: CYP2C9; parameters: method as in PMID 33394101; conditions: 33 adult NSCLC patients; cited from earlier work
[7] = Amorphous solubility, solvent quench method; format: physicochemical; conditions: higher in distilled water
Protocol: The amorphous solubility of CRT was measured using the solvent quench method, which employed methanol and HPMC as the solvent and crystallization inhibitor, respectively. […] The detailed amorphous solubility methodology can be found in Shete et al. (2021).[39]

[8] = parameters: method as in doi:10.1021/acs.cgd.7b01027; conditions: cited from earlier work
[9] = Thermodynamic solubility, shake flask method; format: physicochemical; conditions: phosphate buffer 50 mM pH 6.8, 24 h, 37 °C; read-out: thermodynamic solubility of CRT
Protocol: Excess amounts of CRT and CAMs were added to solubility vials (2 mL) containing the buffer. These vials were then subjected to agitation on an orbital shaker for 24 h at 37 °C and 120 rpm. After this incubation period, the pH of the samples was checked and adjusted if necessary just before centrifugation. Centrifugation was carried out at 37 °C, 10,000 rpm, for 10 min, trailed by the collection of the supernatant and its dilution using the mobile phase. The samples were then analyzed by using the HPLC method described below. This experimental procedure was conducted in triplicate (n = 3).
The Shimadzu Prominence UHPLC with a UV detector was used for the analysis. A GraceSmart Brava BDS-C18 column (250 mm × 4.6 mm × 5 μm) was used for chromatographic separation. The mobile phase was given in a gradient manner with 42:50:8% v/v methanol:25 mM phosphate buffer pH 3.0:ACN for 5 min and 50:50% v/v acetonitrile:25 mM phosphate buffer pH 3.0 for 17 min at a flow rate of 1 mL/min.

[10] = Oral pharmacokinetic study; format: in vivo, male Wistar rats; conditions: single oral dose 15 mg/kg
Protocol: Pharmacokinetic studies were conducted by following the CPCSEA guidelines. MAHE-IAEC (IAEC/KMC/24/2020) approved the study. The study utilized a parallel design, with each group comprising 3 male Wistar rats weighing approximately 200 g, with a variation of ±20 g. Prior to treatment, the rats underwent a 12 h fasting period but were allowed access to water. Treatment A involved administering a dose of 15 mg/kg of CRT, suspended in a 0.5% (w/v) carboxyl methyl cellulose (CMC) aqueous solution. Treatment B consisted of a 15 mg/kg equivalent CRT CAMs suspension prepared in a 0.5% (w/v) CMC vehicle. The animals received 1 mL of the suspension orally via oral gavage. The interested readers are directed to the pharmacokinetic study reported by Yarlagadda et al. (2023) for detailed methodology.[38]

[11] = male, Wistar, rat, plasma, n = 3

SMILES | glass transition event temperature [1] [°C] | IC50 [2] [µM] | IC50 ([3]; A549, SRB, 48 h incubation) [µM] | enhancement of AUC of midazolam by CRT versus midazolam alone [4] [fold] | enhancement of Cmax of midazolam by CRT versus midazolam alone [4] [fold] | %G1 (percentage of cells in G0/G1 phase) [5] [%] | %G2 (percentage of cells in G2/M phase) [5] [%] | improvement of AUC of S-warfarin by CRT [6] [%] | amorphous solubility of CRT, distilled water versus pH 6.8 phosphate buffer [7] | excess enthalpy of CRT in water [8] [kcal/mol] | IC50 ([3]; A549, 48 h) [µM] | solubility thermodynamic at 24 h [9] [µg/mL] | Cmax ([10]; male, Wistar, rat, plasma, po, 15 mg/kg, n = 3, read-out: Cmax of CRT) [ng/mL] | MRT [10, 11] [h] | Tmax [10, 11] [h] | half-life [10, 11] [h] | AUC(0-t) ([10]; male, Wistar, rat, plasma, n = 3, 72 h, read-out: AUC0–t of CRT) [ng·h/mL] | Cmax of CRT ([10]; n = 3, 15 mg/kg) [ng/mL]
C[C@@H]1O[C@@H](O[C@H]2[C@H](Oc3cc(O)c4c(c3)O[C@H](c3ccc(O)cc3)CC4=O)O[C@H](CO)[C@@H](O)[C@@H]2O)[C@H](O)[C@H](O)[C@H]1O [NRG, naringin] | 167 | 2400 | 162 |  |  |  |  |  |  |  |  |  |  |  |  |  |  | 
Cc1cc(Nc2ncc(Cl)c(Nc3ccccc3S(=O)(=O)C(C)C)n2)c(OC(C)C)cc1C1CCNCC1 [CRT, ceritinib] |  |  |  | 5.42 | 1.82 | 47.1 | 23.9 | 56 | approximately threefold | -0.844 | 3.53 | 3.3 (≈ 5.91 µM) | 173 | 20.2 ± 0.75 | 6 | 22.1 | 3580 ± 218 | 173.26 ± 5.34
